Laboratory results from patent publication US9943525B2, “Composition for reducing cell senescence comprising Rho-kinase inhibitor and use thereof” (Samsung Electronics Co., Ltd., priority 2014, dated 2018).

How the values were obtained:
Type in all cases: cell-based, human
[1] = system: senescent fibroblasts (after 38 cell passages); assay: DNA comet assay; settings: 4 weeks, vs control, p<0.01, FIG. 12
Description: The degrees of restoration of DNA damage in senescent cells by the Rho-kinase inhibitors were identified by a DNA comet assay. This method is performed by detecting DNA fractions cleaved by ultraviolet (UV) irradiation. This method is based on gel electrophoresis. During gel electrophoresis, damaged DNA migrates farther than normal DNA forming a tail like a comet-tail. Then, a slide was stained with SYBR Green, and the length of a tail of a DNA fraction was measured using a fluorescence microscope to identify the degree of DNA damage.
FIG. 12 is a graph displaying degrees of DNA damage in fibroblasts (after 38 cell passages) cultured in the presence of Rho-kinase inhibitors Y-27632 (5 μM), Fasudil (5 μM), and SR3677 (0.5 μM) measured by a DNA comet assay indicating the degree of DNA damage. In FIG. 12, senescent cells (after 38 cell passages) were cultured in culture media supplemented with 5 μM of Y-27632, 5 μM of FASUDIL, and 0.5 μM of SR3677 for 4 weeks in a 5% CO2 incubator at 37° C. The culture media were changed at every 4 days with new culture media supplemented with 5 μM of Y-27632, 5 μM of FASUDIL, and 0.5 μM of SR3677. Also, negative control groups were prepared in the same manner as described above, except that one negative control group was prepared with no treatment and another was treated with 0.05 (v/v) % of DMSO. Cells having undergone 17 passages and having a cell doubling time of 4 to 5 days were used as young cells. […] Thus, it was confirmed that the degree of DNA damage increases in senescent cells. In the Comet assay, the Tail Moment is defined as multiplication of a length of the tail by a total DNA fraction contained in the tail. That is, the Tail Moment is a length of the tail migrated during gel electrophoresis. As the length of the tail decreases, the degree of DNA damage decreases. […] In FIG. 12, ** indicates statistically significant (p<0.01). In FIG. 12, the “Fibroblast p17” and “Fibroblast p38” refer to fibroblasts that were subcultured for 17 passages and fibroblasts subcultured for 38 passages, respectively.

[2] = system: senescent progeric fibroblasts (passage 17); assay: lipofuscin autofluorescence by flow cytometry; settings: 4 weeks, vs control, p<0.05, FIG. 18
Description: (§1) Progeric fibroblasts (Hutchinson-Gilford Progeria Syndrome Skin Fibroblasts, Coriell Cell Repositories, AG03198 B) were cultured in Dulbecco's Modified Eagle's Media (DMEM) supplemented with 10% fetal bovine serpm (FBS) and 100 unit/ml of penicillin, and 100 μg/ml of streptomycin (two antibiotics are purchased from Gibro-BRL and Grand Island, N.Y.) in a 5% CO2 incubator at 37° C. Subculturing was initiated when the cells were approximately 85% confluent in plates. Early subcultures were performed at a split ratio of 1:4, and later subcultures were performed at a split ratio of 1:2. When cell doubling time was 14 days, the cells were regarded as senescent progeric fibroblasts (cell passages 16 to 17).
In addition, the amounts of lipofuscin accumulated in the cultured cells were measured. Senescent progeric fibroblasts (passage 17) were cultured in the presence of 5 μM of Y-27632, 5 μM of FASUDIL, and 0.5 μM of SR3677 for 4 weeks in a 5% CO2 incubator at 37° C. The culture media were changed at every 4 days with new culture media supplemented with 5 μM of Y-27632, 5 μM of FASUDIL, and 0.5 μM of SR3677. Since lipofuscin has autofluorescence characteristics, light having a wavelength of 488 nm was irradiated to the cells by using a FACSCaliber (Beckton Dickinson) and light emission at 520 nm was measured. The results were analyzed using Cell Quest 3.2 software (Beckton Dickinson). FIG. 18 is a graph displaying amounts of lipofuscin in progeric fibroblasts (passage 17) cultured in the presence of Rho-kinase inhibitors Y-27632 (5 μM), Fasudil (5 μM), and SR3677 (0.5 μM). […] In FIG. 18, * indicates statistically significant (p<0.05).

[3] = system: senescent progeric fibroblasts (cell passage 17); assay: microscopic observation of cell number and shape; settings: 4 weeks, FIG. 17; for numbers of cells: vs DMSO
Description: as §1
(§2) The senescent progeric fibroblasts (cell passage 17) were seeded on each well of a 6-well plate in a concentration of 2,000 cells/well and cultured in the presence of 5 μM of Y-27632, 5 μM of FASUDIL, and 0.5 μM of SR3677 for 4 weeks in a 5% CO2 incubator at 37° C. The culture media were changed at every 4 days with new culture media supplemented with 5 μM of Y-27632, 5 μM of FASUDIL, and 0.5 μM of SR3677. A negative control group was prepared in the same manner, except that 0.05 (v/v) % of DMSO was used.
FIG. 17 illustrates microscopic images of cells cultured in the presence of 5 μM of Y-27632, 5 μM of FASUDIL, and 0.5 μM of SR3677. In “a” of FIG. 17, a portion was selected, marked by a rectangle with a dashed line, and enlarged in a1 for closer examination of the cultured cells. In a1 of FIG. 17, a portion of a1 was selected, marked by a rectangle with a dashed line, and enlarged in a2 for much closer examination of the cultured cells (Scale bar 20 um).

[4] = system: senescent progeric fibroblasts (cell passage 17); assay: mitochondrial ROS (MitoSOX) by flow cytometry; settings: vs control, p<0.05, FIG. 19
Description: as §1, §2
In addition, damage of mitochondria was identified by measuring reactive oxygen species (ROS) and mitochondrial membrane potentials which are well known in the art. ROS were measured using a 0.2 μM MitoSOX (Invitrogen, M3608) according to manufacturer's manuals. Light having a wavelength of 520 nm was irradiated to the cells using a FACSCaliber (Beckton Dickinson), and light emission was measured at 580 nm. The results were analyzed using Cell Quest 3.2 software (Beckton Dickinson). FIG. 19 is a graph displaying reactive oxygen species of progeric fibroblasts (cell passage 17) cultured in the presence of Rho-kinase inhibitors Y-27632 (5 μM), Fasudil (5 μM), and SR3677 (0.5 μM). […] In FIG. 19, * indicates statistically significant (p<0.05).

[5] = system: senescent fibroblasts (after 37 cell passages); assay: mitochondrial ROS (MitoSOX) by flow cytometry; settings: vs control, p<0.05, FIG. 10
Description: In addition, damage of mitochondria was identified by measuring reactive oxygen species (ROS) and mitochondrial membrane potentials which are well known in the art. ROS were measured using a 0.2 μM MitoSOX (Invitrogen, M3608) according to manufacturer's manuals. Light having a wavelength of 520 nm was irradiated to the cells using a FACSCaliber (Beckton Dickinson), and light emission was measured at 580 nm. The results were analyzed using a Cell Quest 3.2 software (Beckton Dickinson). […] In FIG. 10, * indicates statistically significant (p<0.05).

Structure (SMILES): O=S(=O)(c1cccc2cnccc12)N1CCCNCC1 [FASUDIL, 5-(1,4-diazepane-1-sulfonyl)isoquinoline]
- DNA damage (Tail Moment) ([1]; 5 μM): considerably restored
- amounts of lipofuscin ([2]; 5 μM): significantly reduced
- cell shape ([3]; 5 μM): spindle shape generally found in young cells
- numbers of cells ([3]; 5 μM): greater than that of the control group
- ROS ([4]; 5 μM): significantly reduced
- ROS ([5]; 5 μM): significantly reduced

Structure (SMILES): CN(C)CCOc1cc(-c2cn[nH]c2)ccc1NC(=O)C1COc2ccccc2O1 (stereo not drawn) [SR3677]
- DNA damage (Tail Moment) ([1]; 0.5 μM): considerably restored
- amounts of lipofuscin ([2]; 0.5 μM): significantly reduced
- cell shape ([3]; 0.5 μM): spindle shape generally found in young cells
- numbers of cells ([3]; 0.5 μM): greater than that of the control group
- ROS ([4]; 0.5 μM): significantly reduced
- ROS ([5]; 0.5 μM): significantly reduced

Structure (SMILES): C[C@@H](N)[C@H]1CC[C@H](C(=O)Nc2ccncc2)CC1 [Y-27632, (1R,4R)-4-((R)-1-aminoethyl)-N-(pyridin-4-yl)cyclohexanecarboxamide]
- DNA damage (Tail Moment) ([1]; 5 μM): considerably restored
- amounts of lipofuscin ([2]; 5 μM): significantly reduced
- cell shape ([3]; 5 μM): spindle shape generally found in young cells
- numbers of cells ([3]; 5 μM): greater than that of the control group
- ROS ([4]; 5 μM): significantly reduced
- ROS ([5]; 5 μM): significantly reduced
